In paper PMC4773911 (Journal of the American Chemical Society, 2015):
“Also recorded” adds a separate entry of the source.

What was measured:
[1] = system: mouse liver; conditions: cited from earlier work
[2] = molecular target: T1, DAGL-α (Homo sapiens, UniProt Q9Y4D2); assay type: biochemical; conditions: pre-incubated at IC80 concentration; MB064 labeling; n=3
T1 sequence (Q9Y4D2 1-1042): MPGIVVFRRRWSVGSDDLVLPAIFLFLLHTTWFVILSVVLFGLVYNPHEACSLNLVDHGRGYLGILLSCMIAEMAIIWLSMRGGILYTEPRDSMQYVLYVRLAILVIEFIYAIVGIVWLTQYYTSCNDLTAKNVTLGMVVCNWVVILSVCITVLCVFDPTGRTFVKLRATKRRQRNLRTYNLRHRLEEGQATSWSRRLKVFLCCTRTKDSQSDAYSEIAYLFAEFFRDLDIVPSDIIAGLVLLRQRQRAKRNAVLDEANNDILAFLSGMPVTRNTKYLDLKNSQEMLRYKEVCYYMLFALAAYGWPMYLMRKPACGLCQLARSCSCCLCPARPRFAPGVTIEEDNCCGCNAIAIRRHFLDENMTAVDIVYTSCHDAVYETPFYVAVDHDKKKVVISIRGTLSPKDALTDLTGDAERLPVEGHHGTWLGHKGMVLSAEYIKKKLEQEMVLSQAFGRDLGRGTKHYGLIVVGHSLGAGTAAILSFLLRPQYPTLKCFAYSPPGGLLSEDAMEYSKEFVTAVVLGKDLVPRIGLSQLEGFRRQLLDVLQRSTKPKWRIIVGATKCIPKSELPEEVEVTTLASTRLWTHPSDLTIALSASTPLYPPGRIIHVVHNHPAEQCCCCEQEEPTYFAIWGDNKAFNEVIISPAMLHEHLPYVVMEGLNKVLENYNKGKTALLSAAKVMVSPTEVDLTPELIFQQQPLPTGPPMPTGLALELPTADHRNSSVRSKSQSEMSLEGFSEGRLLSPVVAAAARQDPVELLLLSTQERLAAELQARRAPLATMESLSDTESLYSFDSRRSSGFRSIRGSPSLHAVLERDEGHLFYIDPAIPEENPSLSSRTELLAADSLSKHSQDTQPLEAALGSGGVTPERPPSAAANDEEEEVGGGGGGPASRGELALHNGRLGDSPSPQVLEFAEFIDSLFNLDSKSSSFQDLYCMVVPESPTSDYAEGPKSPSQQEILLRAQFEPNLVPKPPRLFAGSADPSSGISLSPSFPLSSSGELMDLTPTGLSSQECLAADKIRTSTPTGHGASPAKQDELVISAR

[3] = molecular target: T2, FAAH (Mus musculus, UniProt O08914); assay: competitive ABPP with TAMRA-FP in mouse brain membrane proteome, FAAH labeling; assay type: binding
T2 sequence (O08914 1-579): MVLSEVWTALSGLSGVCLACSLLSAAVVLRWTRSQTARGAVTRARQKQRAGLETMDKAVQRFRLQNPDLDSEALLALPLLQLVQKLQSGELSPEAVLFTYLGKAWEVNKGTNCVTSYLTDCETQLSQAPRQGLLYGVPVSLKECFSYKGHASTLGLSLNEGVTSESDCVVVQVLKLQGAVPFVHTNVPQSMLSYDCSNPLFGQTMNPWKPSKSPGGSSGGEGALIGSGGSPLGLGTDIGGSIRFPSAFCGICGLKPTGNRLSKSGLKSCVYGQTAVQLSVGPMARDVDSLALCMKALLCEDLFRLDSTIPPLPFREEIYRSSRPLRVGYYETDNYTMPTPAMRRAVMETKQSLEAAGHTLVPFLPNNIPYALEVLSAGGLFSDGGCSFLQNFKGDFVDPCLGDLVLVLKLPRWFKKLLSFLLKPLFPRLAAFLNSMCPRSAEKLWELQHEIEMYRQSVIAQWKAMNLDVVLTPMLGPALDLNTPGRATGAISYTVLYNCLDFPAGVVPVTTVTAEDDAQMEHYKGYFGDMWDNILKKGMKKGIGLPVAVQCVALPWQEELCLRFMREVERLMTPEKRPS

[4] = molecular target: T1, DAGL-α; assay: real-time, fluorescence-based
[5] = molecular target: T1, DAGL-α; assay: radiometric assay using 1-[14C]oleoyl-2-arachidonoyl-sn-glycerol as substrate; assay type: biochemical; conditions: 1-[14C]oleoyl-2-arachidonoyl-sn-glycerol 20 μm; n=2
[6] = molecular target: cannabinoid CB1 receptor (Homo sapiens, UniProt P21554); assay: cannabinoid CB1 receptor radioligand displacement assay; assay type: binding
[7] = system: CA1 pyramidal neurons in hippocampal slices; assay: depolarization-induced suppression of inhibition; assay type: cell-based, mouse; conditions: 10 μM
[8] = molecular target: T3, endogenous DAGL-β (Mus musculus, UniProt Q91WC9); assay: competitive ABPP with MB064 in Neuro2A proteome; assay type: binding; conditions: Neuro2A proteome in vitro, n=3
T3 sequence (Q91WC9 1-669): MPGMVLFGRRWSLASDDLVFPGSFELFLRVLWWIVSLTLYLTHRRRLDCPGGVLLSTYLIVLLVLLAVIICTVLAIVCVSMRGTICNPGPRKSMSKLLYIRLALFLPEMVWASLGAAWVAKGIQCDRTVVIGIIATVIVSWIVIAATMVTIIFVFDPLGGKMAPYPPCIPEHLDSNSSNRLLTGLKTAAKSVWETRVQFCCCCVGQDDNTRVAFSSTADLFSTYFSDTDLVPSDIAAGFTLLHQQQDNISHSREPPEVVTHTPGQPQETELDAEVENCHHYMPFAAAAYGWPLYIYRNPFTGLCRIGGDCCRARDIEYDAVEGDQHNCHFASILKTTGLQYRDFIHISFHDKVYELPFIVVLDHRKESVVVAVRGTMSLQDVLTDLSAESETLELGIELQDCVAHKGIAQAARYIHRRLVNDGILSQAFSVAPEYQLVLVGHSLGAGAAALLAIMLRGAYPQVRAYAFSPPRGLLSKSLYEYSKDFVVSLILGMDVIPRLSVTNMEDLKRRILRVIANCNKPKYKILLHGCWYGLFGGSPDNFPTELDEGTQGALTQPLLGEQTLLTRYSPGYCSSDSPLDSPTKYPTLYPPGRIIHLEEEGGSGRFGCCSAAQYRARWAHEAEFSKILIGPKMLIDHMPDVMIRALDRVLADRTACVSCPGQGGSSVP

[9] = system: DAGL-α; assay type: binding, mouse; conditions: 10 μM
[10] = molecular target: T4, recombinant human MAGL (Homo sapiens, UniProt Q99685); assay: biochemical assay using recombinant human MAGL
T4 sequence (Q99685 1-303): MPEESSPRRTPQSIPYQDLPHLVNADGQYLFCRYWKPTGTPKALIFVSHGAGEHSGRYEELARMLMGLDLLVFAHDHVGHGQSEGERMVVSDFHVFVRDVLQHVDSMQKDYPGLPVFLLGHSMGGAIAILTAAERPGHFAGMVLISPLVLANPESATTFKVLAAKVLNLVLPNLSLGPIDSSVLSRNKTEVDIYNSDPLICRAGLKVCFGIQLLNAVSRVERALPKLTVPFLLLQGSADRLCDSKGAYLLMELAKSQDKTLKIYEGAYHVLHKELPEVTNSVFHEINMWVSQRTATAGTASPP

[11] = molecular target: T5, hDAGL-β (Homo sapiens, UniProt Q8NCG7); assay: biochemical assay with para-nitrophenylbutyrate as a surrogate substrate; conditions: n=4
T5 sequence (Q8NCG7 1-672): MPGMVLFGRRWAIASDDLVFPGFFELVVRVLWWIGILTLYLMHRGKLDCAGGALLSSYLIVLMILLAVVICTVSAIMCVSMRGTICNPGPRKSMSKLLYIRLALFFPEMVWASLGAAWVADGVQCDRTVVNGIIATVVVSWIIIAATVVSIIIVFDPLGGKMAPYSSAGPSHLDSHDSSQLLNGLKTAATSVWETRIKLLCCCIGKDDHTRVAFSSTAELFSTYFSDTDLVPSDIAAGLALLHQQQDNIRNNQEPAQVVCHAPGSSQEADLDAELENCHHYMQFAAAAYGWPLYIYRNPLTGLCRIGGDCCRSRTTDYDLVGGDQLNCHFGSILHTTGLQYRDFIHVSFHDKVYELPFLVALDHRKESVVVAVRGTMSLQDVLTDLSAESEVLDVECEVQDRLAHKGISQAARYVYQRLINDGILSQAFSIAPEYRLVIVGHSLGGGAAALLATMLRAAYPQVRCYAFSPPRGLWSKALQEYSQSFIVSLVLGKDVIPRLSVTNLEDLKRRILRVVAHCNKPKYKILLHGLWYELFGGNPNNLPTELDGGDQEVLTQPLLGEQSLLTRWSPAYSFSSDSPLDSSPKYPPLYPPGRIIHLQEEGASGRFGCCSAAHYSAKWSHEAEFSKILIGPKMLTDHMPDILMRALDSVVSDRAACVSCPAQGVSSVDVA

[12] = system: ABHD6; assay: ABPP in Neuro2A proteome, ABHD6; assay type: binding, mouse
[13] = molecular target: T5, hDAGL-β; assay: competitive ABPP with MB064 on membranes of hDAGL-β transfected HEK293T cells; assay type: binding; conditions: n=3
[14] = system: serine hydrolases; assay type: binding, mouse
[15] = molecular target: T2, FAAH; assay: ABPP in Neuro2A proteome, FAAH; assay type: binding
[16] = system: Neuro2A cells; assay: targeted lipidomics after in situ treatment of Neuro2A cells; assay type: cell-based, mouse; conditions: in situ 1h, 37 °C, n=4
[17] = molecular target: T1, DAGL-α; assay: colorimetric assay using para-nitrophenylbutyrate as a surrogate substrate; assay type: biochemical
[18] = system: serine hydrolases; assay type: binding, mouse; conditions: 10 μM, 30 min
[19] = molecular target: T6, recombinant human ABHD6 (Homo sapiens, UniProt Q9BV23); assay: biochemical assay using recombinant human ABHD6
T6 sequence (Q9BV23 1-337): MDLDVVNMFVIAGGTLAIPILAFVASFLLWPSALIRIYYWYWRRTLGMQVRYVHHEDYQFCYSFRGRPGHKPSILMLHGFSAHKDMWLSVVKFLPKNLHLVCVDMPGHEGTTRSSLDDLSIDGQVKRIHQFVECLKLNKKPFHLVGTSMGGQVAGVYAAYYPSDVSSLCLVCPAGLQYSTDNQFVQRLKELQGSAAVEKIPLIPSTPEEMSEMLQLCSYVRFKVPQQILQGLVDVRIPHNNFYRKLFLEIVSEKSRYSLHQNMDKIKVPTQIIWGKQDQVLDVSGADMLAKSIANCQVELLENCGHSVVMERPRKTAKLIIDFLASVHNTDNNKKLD

[20] = system: human PC3 cells; assay: lipid levels in human PC3 cells; assay type: cell-based
[21] = system: endogenously expressed DAGL-β; assay: competitive ABPP with MB064 in mouse spleen membrane proteome; assay type: binding; conditions: 10 μM, MB064 1.0 μM

cannabinoid CB1 receptor, sequence (P21554 whole entry): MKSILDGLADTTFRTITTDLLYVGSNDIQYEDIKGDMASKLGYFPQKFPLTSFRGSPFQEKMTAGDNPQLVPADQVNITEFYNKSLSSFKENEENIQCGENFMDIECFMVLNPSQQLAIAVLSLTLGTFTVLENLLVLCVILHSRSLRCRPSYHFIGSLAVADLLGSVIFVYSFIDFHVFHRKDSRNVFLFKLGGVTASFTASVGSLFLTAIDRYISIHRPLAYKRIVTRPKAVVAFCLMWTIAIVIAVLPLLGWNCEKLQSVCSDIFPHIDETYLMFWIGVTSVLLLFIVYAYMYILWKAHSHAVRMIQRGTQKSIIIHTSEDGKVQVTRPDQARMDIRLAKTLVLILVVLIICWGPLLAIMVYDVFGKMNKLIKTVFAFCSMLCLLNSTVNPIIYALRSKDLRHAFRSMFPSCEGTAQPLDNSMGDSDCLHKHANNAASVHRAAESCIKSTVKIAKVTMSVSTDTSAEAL

O=C(N1CCCCC1Cc1ccccc1)n1cc(-c2ccc(-c3ccccc3)cc2)nn1 (centres unmarked) [KT-109, reference compound]
arachidonic acid levels [1]: reduction | recovery of DAGL-α activity after size exclusion chromatography [2]: No recovery

O=C(CCCCCc1ccccc1)c1nc2ncccc2o1 [LEI104]
IC50 [3]: 0.0158 µM | IC50 [4]: 0.501 µM

Cc1ccc(-c2cnc3nc(C(=O)CCCCCc4ccccc4)oc3c2)cc1 [LEI105]
pIC50, radiometric assay [5]: 6.6 | block of FAAH labeling ([3]; up to a concentration of 10 μM, TAMRA-FP, n=3): did not block FAAH labeling | displacement of 3H-CP55940 from the CB1 receptor ([6]; 10 μM): did not displace | pKi on cannabinoid CB1 receptor ([6]; radioligand displacement): < 5 | DSI in hippocampal slices (in words) [7]: reduced | amplitude of stimulus-evoked inhibitory post-synaptic currents (IPSC) ([7]; pre-incubation and continuous application): 271 ± 22 pA | DSI, reduction in IPSC amplitude averaged over the first 15 sec after induction ([7]; n=15, p<0.05 vs control): 18 ± 7% | pIC50 of DAGL-β labeling [8]: 7.3 ± 0.07 | reduction of DAGL-α labeling [9]: over 70% | pKi on MAGL [10]: < 5 | pIC50 on human DAGL-β [11]: 8.1 ± 0.07 | inhibition of ABHD6 [12]: no inhibition | fold increase compared to LEI104 ([4]; natural substrate assay): 40 fold | pIC50 of hDAGL-β labeling by MB064 [13]: 7.4 ± 0.07 | inhibition of labeling of other bands (TAMRA-FP and MB064) ([14]; 10 μM): did not inhibit labeling of any other band | inhibition of FAAH [15]: no inhibition | cellular 2-AG levels [16]: concentration-dependent reduction; also recorded: dose dependently decreased | cellular anandamide (AEA) levels [16]: unaffected; also recorded: constant | fold more potent than LEI104 ([17]; para-nitrophenylbutyrate assay, vs LEI104): ~10 fold | pIC50 on human DAGL-α ([17]; para-nitrophenylbutyrate surrogate substrate, n=4): 8.5 ± 0.06 | reduction of labeling of the detected serine hydrolases, except DAGL-α [18]: ≤ 20% | pKi on ABHD6 [19]: < 5 | recovery of DAGL-α activity after size exclusion chromatography [2]: reversibility | 2-AG levels [20]: reduced | arachidonic acid levels [20]: reduced | substrate levels of DAGL (DAG species) [20]: no change | inhibition of endogenous DAGL-β labeling/activity in spleen [21]: could be inhibited; also recorded: can block labeling

CCCCCCCCCCC[C@@H](C[C@@H]1OC(=O)[C@H]1CCCCCC)OC(=O)[C@@H](NC=O)[C@@H](C)CC [OMDM-188, reference compound]
number of serine hydrolases whose labeling was blocked ([14]; 1 μM, including ABHD6 and ABHD12): at least 4
